Read-outs that look alike come from different tables or passages of the source.
What was measured:
[1] = system: Citrus trees infected with CLas; experiment: Recovery composition trunk injection: 'Valencia' orange fruit yield (Examples 3, 19); assay type: in vivo, Citrus sinesis; conditions: for Average Yield (Relative to Untreated) / Average Yield (kg per tree): 'Valencia' orange; for Average Yield (Relative to Untreated) / Average Yield (kg per tree) / increased yield compared to the untreated control: trunk injection; for increased yield compared to the untreated control: 'Valencia' trees; for yield, average relative to control: 'Valencia', combined average of 2 sites (Table 56)
[2] = system: Citrus trees infected with Candidatus Liberibacter asiaticus; assay type: in vivo, Citrus x paradisi
[3] = system: Citrus trees infected with CLas; design: species or system Citrus sinesis; conditions: in vivo
[4] = system: Citrus trees infected with CLas; assay type: in vivo, Citrus x paradisi; Citrus sinesis; conditions: average of 'Ruby Red' and 'Valencia'
Excerpt: Treatments as previously described in Example 3; β-1,3-Endoglucanase from barley SEQ ID NO: 731 (Treatment 1) and Bt.4Q7Flg22 from Bacillus thurigiensis SEQ ID NO: 226 (Treatment 5) increased fruit yield (kg/tree) as described in Table 56. Fruit quality, and juice quality of ‘Valencia’ oranges are described in Table 57.
For direct comparison of the treatment results between grapefruit (‘Ruby Red’) and orange (‘Valencia’) are referenced in Table 56 above.

[5] = system: Citrus trees infected with Candidatus Liberibacter asiaticus (CLas); design: species or system Citrus sinensis; conditions: in vivo
[6] = system: Citrus trees infected with Candidatus Liberibacter asiaticus (CLas); design: species or system Citrus sinensis; conditions: in vivo; remark: listed apart in the source
[7] = system: Citrus trees infected with Candidatus Liberibacter asiaticus; design: species or system Citrus x paradisi; conditions: in vivo
[8] = system: corn hybrids Beck's 6127 BHMF and 6127 DVMF; conditions: in vivo
[9] = system: Candidatus Liberibacter asiaticus (CLas); conditions: in vivo
[10] = system: field mustard (Brassica rapa) seedlings; experiment: Root hair and lateral root elongation in liquid-culture grown field mustard seedlings (Example 13); conditions: for Experiment A: Average Root Hair Length Per Plant (mm) / Experiment B: Average Length of Three Longest Lateral Roots Per Plant (mm) / Experiment A: Average Root Hair Length Per Plant, % of UTC / Experiment B: Average Length of Three Longest Lateral Roots Per Plant, % of UTC: field mustard seedlings, peptide 10 μM; for Experiment A: Average Root Hair Length Per Plant (mm) / Experiment B: Average Length of Three Longest Lateral Roots Per Plant (mm) / average lateral root length compared to untreated control / average root hair length compared to untreated control / increases in average lateral root length relative to control / increases in root hair length relative to control: liquid culture; for Experiment A: Average Root Hair Length Per Plant (mm) / Experiment B: Average Length of Three Longest Lateral Roots Per Plant (mm): about three days; for Experiment A: Average Root Hair Length Per Plant (mm): UTC = 0.137; for Experiment B: Average Length of Three Longest Lateral Roots Per Plant (mm): UTC = 0.632; for average lateral root length compared to untreated control / average root hair length compared to untreated control / increases in average lateral root length relative to control / increases in root hair length relative to control: approximately three days
[11] = system: HLB-infected citrus trees; experiment: Citrus trials of Examples 20-24: fruit yield, size, count and drop, average over orange and grapefruit trials; assay type: in vivo, Citrus sinesis; Citrus paradisi
Protocol: All fruit with a diameter greater than or equal to 1.6 inches (40 mm) were hand-picked and collected for each tree. The total “Fruit Weight” (in kilograms) per individual tree was measured and recorded. Trees with total fruit weights less than or greater than 2 standard deviations (2STDEV) from the trial mean were considered to be outliers and removed from the dataset. Fruit size was assessed as the “Average Weight per Fruit” in grams (weight of 20 random fruit per tree, divided by 20) and “Average Fruit Diameter” in millimeters, as described in Example 1. The “Average Fruit Count” per tree was assessed as the total “Fruit Weight” divided by “Average Weight per Fruit”. “Fruit Drop” was assessed as for Example 1. Fruit quality was assessed as for Example 2, with the exception that one set of fruit consisted for 15 total fruit, each corresponding to a sampling of 3 fruit from 5 trees of the same experimental treatment block. Each set of 15 fruit were weighed (gram; g) and then juiced together. Average yield, % fruit drop, fruit size, and juice quality for each of the tested compositions are described in Examples 20-24.

[12] = system: HLB-infected citrus trees; design: species or system Citrus sinesis; Citrus paradisi; conditions: in vivo

Compound	Experiment A: Average Root Hair Length Per Plant (mm) [10] [mm]	Experiment B: Average Length of Three Longest Lateral Roots Per Plant (mm) [10] [mm]	Experiment A: Average Root Hair Length Per Plant, % of UTC [10]	Experiment B: Average Length of Three Longest Lateral Roots Per Plant, % of UTC [10]	average lateral root length compared to untreated control [10]	average root hair length compared to untreated control [10]	other results
N[C@@H](CS)C(=O)O [L-Cysteine, L-cysteine]							Average Yield (Relative to Untreated) [1]: (105%); Average Yield (kg per tree) [1]: 42.3 kg per tree; increased yield compared to the untreated control [1]: +2.0 kg per tree; yield, average relative to control [1]: 103%; Average Yield (Relative to Untreated) ([2]; […], trunk injection): (101%); Average Yield (kg per tree) ([2]; […], trunk injection): 34.8 kg per tree; Average Fruit Diameter (Relative to Untreated) [3]: (104%); Average Fruit Diameter (mm) [3]: 62.52 mm; Brix:CA Ratio [3]: 12.76; Brix:CA Ratio (Relative to Untreated) [3]: (+1.51); fruit size and ^oBrixc to Citric Acid ratio (Brix:CA) relative to the untreated control [3]: increased; Average Yield (Relative to Untreated), Average of 2 sites [4]: (103%)
DRLSSGKRINSAKDDAAGLAIA (listed as Bacillus thuringiensis) [Bt.4Q7Flg22Syn01, Modified FLG22-Bt4Q7 (S13K)]							total increased yield (kg) per tree [5]: 26%; Brix [6]: 9.4; juice content [6]: 46%
DRLSSGKRINSASDDAAGLAIA (listed as Bacillus thuringiensis) [Bt.4Q7Flg22, Flg22 flagellin-associated polypeptide from Bacillus thuringiensis strain 4Q7]							fruit size, juice volume, % juice content and ^oBrixc to Citric Acid ratio (Brix:CA) relative to the untreated control [7]: increased; Average Yield (Relative to Untreated) [1]: (119%); Average Yield (kg per tree) [1]: 48.1 kg per tree; increased yield compared to the untreated control [1]: 7.8 kg per tree; yield, average relative to control [1]: 113%; average yield benefit over the control corn plants [8]: +6.44 flu/Ac; total increased yield (kg) per tree [5]: 33%; Average Yield (Relative to Untreated) ([2]; in vivo): (108%); Average Yield (kg per tree) ([2]; in vivo): 37.2 kg per tree; increased yield compared to the untreated control ([2]; in vivo): 2.6 kg per tree; decreased bacterial titers relative to the untreated control [9]: 20%; reduction in CLas bacterial titers compared to initial levels [9]: 16%; Average Fruit Diameter (Relative to Untreated) [3]: (101%); Average Fruit Diameter (mm) [3]: 60.72 mm; Brix:CA Ratio [3]: 12.11; Brix:CA Ratio (Relative to Untreated) [3]: (+0.86); fruit size and ^oBrixc to Citric Acid ratio (Brix:CA) relative to the untreated control [3]: increased; Average Yield (Relative to Untreated), Average of 2 sites [4]: (113%)
GGARAAPAGEER (Brachypodium distachyon) [SEQ ID NO: 747]	0.137	0.959	(99% of UTC)	(152% of UTC)	Increased	did not improve	
GGIRAAPT (listed as Physcomitrella patens) [SEQ ID NO: 745]	0.145	0.853	(105% of UTC)	(135% of UTC)	Increased	increased	
GGIRAAPTGKER [SEQ ID NO: 754]					Increased	increased	
GGIRAAPTGNER (Glycine max) [GmRHPP, Root Hair Promoting Peptide, Glycine max]	0.172	0.971	(125% of UTC)	(154% of UTC)	Increased	increased	increased yield (kg fresh fruit per tree) relative to control trees treated with surfactant control alone, on average ([11]; foliar (Table 73)): 13.9%; decrease in fruit drop relative to surfactant control, on average ([11]; foliar (Table 74)): 22%; more fruit retained at harvest relative to surfactant control, on average ([11]; foliar (Table 74)): 19%; effect on fruit size ([11]; foliar (Table 75)): no effect; fruit weigh more than fruit from control trees treated with surfactant alone, on average ([11]; foliar (Table 75)): 6.2%; increases in average lateral root length relative to control [10]: +54%; increases in root hair length relative to control [10]: +25%; ^oBrixc:Citric Acid Ratio and pounds-solids per tree [12]: increased; more total sugar than control trees treated with surfactant alone, on average [12]: 13.500; reduction in CLas bacterial titers compared to initial levels [9]: 17%
GGIRAARTGNER [SEQ ID NO: 753]					Increased	increased	
GGIRASPTGNER [SEQ ID NO: 755]					Increased	increased	
GGIRATPTENER (Glycine max) [SEQ ID NO: 607]					Increased	increased	
GGIRDAPTGNER [SEQ ID NO: 752]					Increased	increased	
GGIRRAPTGNER [SEQ ID NO: 751]					Increased	increased	
GGIRRARTGNE (listed as Vigna radiata) [SEQ ID NO: 750]	0.147		(107% of UTC)		Increased	increased	
GGIRTAITGNE (listed as Vigna angularis) [SEQ ID NO: 748]	0.151	0.929	(110% of UTC)	(147% of UTC)	Increased	increased	
GGIRVAATGKER (Glycine max) [SEQ ID NO: 608]					Increased	increased	
GGISASPTGN (listed as Lactuca sativa) [SEQ ID NO: 749]	0.182	1.058	(132% of UTC)	(168% of UTC)	Increased	increased	increases in average lateral root length relative to control [10]: +68%; increases in root hair length relative to control [10]: +32%
GIRDAPAGNE (listed as Macleaya cordata) [SEQ ID NO: 746]	0.165	0.822	(120% of UTC)	(130% of UTC)	Increased	increased	
